Data from patent US8765754B2, “Pyrrolotriazine compounds” (Locus Pharmaceuticals, Inc., priority 2009, dated 2014).

Tests used:
Btk = target: T1, Btk (Homo sapiens, UniProt Q06187); experiment: Btk in vitro radioassay (33P-ATP, Poly(Glu,Tyr)); type: biochemical; details: Btk inhibition; reported after Biological Example 2; read-out: IC50 over Btk
T1 construct: purchased Invitrogen
Method: The diluted solution (1 μl) of the compound of the present invention in DMSO was added to 96-well assay plates. Additionally, Btk kinase solution (39 μL) composed of Btk (1.3 nM, Invitrogen), Tris (12.5 mM; pH7.5), Triton X-100 (0.01%), glycerol (5%), MgCl2 (10 mM), EGTA (1 mM), glycerol 2-phosphate (5 mM), DTT (2 mM) and sodium orthovanadate (0.5 mM) was added to 96-well assay plate. The solution was pre-incubated for 20 minutes at 30° C. Then ATP/peptide solution (10 μL) composed of Poly (Glu, Tyr) (0.20 mg/mL, Sigma) and ^33P-ATP (47 μM, PerkinElmer) was added. After incubating at 30° C. for 12 minutes, the reaction was stopped by adding 10 μL of 0.6M phosphoric acid to each well. The each reaction from the 96-well assay plate was transferred to 96-well filter plate. The reaction mixture was analyzed on the radioactive survey equipment (TopCount NXT HTS; PerkinElmer) to read count efficiency.
The inhibition rate (%) of the compound of the present invention was calculated with the following formula: Inhibition rate(%)={1−(counts−B100)/(B0−B100)}×100 B0: average counts for 0% inhibition control (i.e., no compound) B100: average counts for 100% inhibition control (i.e., no enzyme)
The value of 50% inhibition rate (IC50) for the compounds of the present invention was determined from inhibition curve based on inhibition rate at each concentration of the compound of the present invention.

Lck = Lck (Homo sapiens, UniProt P06239); experiment: Z'-lyte kinase assay (FRET), inhibitory activity to other kinases: Lck; type: biochemical; details: selectivity ratio, Biological Example 1 and 2
Method: (§1) Btk tyrosine phosphorylation reaction was carried out using Z′-lyte kinase assay kit—Tyr 1 peptide (Invitrogen) consisting of the following reagent (Tyr 1 peptide, Thy 1 phospho-peptide, 5× kinase buffer, ATP, development regent B, development buffer, and stop reagent) and Btk. Btk activity was determined using fluorescence resonance energy transfer (FRET) method.
The diluted solution (5 μl) of the compound of the present invention in dimethyl sulfoxide (DMSO; Sigma) was added to 96-well assay plates. Additionally, the peptide/kinase solution (10 μl) composed of DL-Dithiothreitol (DTT; 2 mM), Tyr 1 peptide (2 μM), kinase buffer and Btk (5 nM, Invitrogen) was added to the assay plates and the reaction solution was pre-incubated for 20 minutes at 25° C. […] The fluorescence emission of each well was measured on a fluorescence plate reader at a wavelength of 445 nm and 520 nm. The phospholyration ratio was determined by the emission rate of the fluorescence at 445 nm to 520 nm according to manufacturer's instruction.
The inhibition rate (%) of the compounds of the present invention was calculated with the following formula: Inhibition rate(%)=1−{(AX−AB)/(AC−AB)}×100 AX: phospholyration ratio at addition of the compound of the present invention AB: phospholyration ratio at blank AC: phospholyration ratio at only addition of DMSO […]

LynA = LynA (Homo sapiens, UniProt P07948); experiment: Z'-lyte kinase assay (FRET), inhibitory activity to other kinases: LynA; type: biochemical; details: selectivity ratio, Biological Example 1 and 2
Method: as §1
(§2) The diluted solution (5 μl) of the compound of the present invention in dimethyl sulfoxide (DMSO; Sigma) was added to 96-well assay plates. Additionally, the peptide/kinase solution (10 μl) composed of DL-Dithiothreitol (DTT; 2 mM), Tyr 1 peptide (2 μM), kinase buffer and Btk (5 nM, Invitrogen) was added to the assay plates and the reaction solution was pre-incubated for 20 minutes at 25° C. Then, the ATP solution (5 μl) composed of adenosine triphosphate (ATP; 36 μM) and kinase buffer was added and the reaction solution was incubated for 1 hour at 25° C. After the incubation, the development solution B (10 μl) composed of development reagent B and development buffer was added and the reaction solution was incubated for 1 hour at 25° C. The stop solution (10 μl) was added to each well to arrest the enzyme reaction. The fluorescence emission of each well was measured on a fluorescence plate reader at a wavelength of 445 nm and 520 nm. The phospholyration ratio was determined by the emission rate of the fluorescence at 445 nm to 520 nm according to manufacturer's instruction.
(§3) The inhibition rate (%) of the compounds of the present invention was calculated with the following formula: Inhibition rate(%)=1−{(AX−AB)/(AC−AB)}×100 AX: phospholyration ratio at addition of the compound of the present invention AB: phospholyration ratio at blank AC: phospholyration ratio at only addition of DMSO
(§4) The value of 50% inhibition rate (IC50) for the compound of the present invention was determined from inhibition curve based on inhibition rate at each concentration of the compound of the present invention.
(§5) Research for inhibitory activity to other kinases (such as Lck, Fyn, LynA) was performed in similar procedure above described.

Fyn = Fyn (Homo sapiens, UniProt P06241); experiment: Z'-lyte kinase assay (FRET), inhibitory activity to other kinases: Fyn; type: biochemical; details: selectivity ratio, Biological Example 1 and 2
Method: as §1, §2, §3, §4, §5

mouse splenocytes = experiment: B cell activation assay using mouse splenocytes (anti-IgM stimulated CD69 in CD19 positive cells, FACS); type: cell-based; details: Splenocyte; anti-mouse IgM stimulation 6 hours; CD69 MFI in CD19 positive cells
Method: Splenocytes collected from C57B1/6 or Balb/c mice were suspended in RPMI 1640 (Invitrogen), supplemented with 10% fetal bovine serum (FBS). The diluted solution (1 μl) of the compound of the present invention and the suspension of the mouse splenocytes (49 μl) were added to 96-well plate and incubated at 37° C. for 60 min. Cells were stimulated with 10 μl of anti-mouse IgM (Jackson Immunoresearch). Samples were stimulated at 37° C. for 6 hours, 5% CO2 and treated with 10 μl/well Fc block (BD Biosciences) for 15 min on ice in the dark. The diluted solution (10 μl) of antibody (1:2:2 mix of each, Allphycocyanin (APC)-labeled anti-mouse CD3e, Phycoerythrin (PE)-labeled anti-mouse CD19 and Fluorescein Isothiocyanate (FITC) labeled anti-mouse CD69) was added to 96-well collection plate. Samples were transferred to the 96-well collection plate and incubated for 30 min on ice in the dark. Samples were treated with Lyse/Fix solution (1.6 ml/well, BD biosciences) at 37° C. in collection plates and were incubated for at 37° C. for 15 min. Cells were collected by centrifugation at 2000 rpm for 10 min repeatedly, resuspended in stain buffer (BD Biosciences) and analyzed by FACS to determine mean fluorescence intensity (MFI) of CD69 in the CD19 positive cell population. […]

[1] = Pharmacokinetic profile in rats; type: in vivo; details: rat, plasma, fasted male Sprague-Dawley rats
Method: Using fasted male Sprague-Dawley rats (250-400 gram; Hilltop Labs), the plasma concentration of the compound of the present invention after intravenous administration at a dose of 1 mg/kg and the plasma concentration after oral gavage administration at a dose of 2 mg/kg were measured. The blood samples (˜0.25 mL) was collected from a rat jugular vein under an unanesthetized condition 1, 5, 15, and 30 minutes, and 1, 2, 4, 8, 12 and 24 hours after intravenous administration, and 5, 15 and 30 minutes, and 1, 1.5, 2, 4, 8, 12 and 24 hours after oral administration. Then the blood samples placed into chilled tubes containing sodium heparin and kept on ice until centrifugation. The samples were centrifuged at a temperature of 4° C. at 13,000 rpm for 5 minutes and the supernatant was collected as plasma. The concentration of the compound in plasma was measured with LC/MS/MS (Acquity HPLC coupled with a quattromicro mass spectrometer, Waters Corp.). From the obtained plasma concentration, an area under the curve (AUC, ng·h/ml), a maximum plasma concentration.(Cmax, μg/mL) and a clearance (CL, mL/hr/kg) were calculated. In addition, Bioavailability (B.A.) of the compound of the present invention was calculated from AUC in oral administration and AUC in intravenous administration.

[2] = oral 2 mg/kg / i.v. 1 mg/kg study, route of the value not given

Fyn, sequence (P06241 whole entry): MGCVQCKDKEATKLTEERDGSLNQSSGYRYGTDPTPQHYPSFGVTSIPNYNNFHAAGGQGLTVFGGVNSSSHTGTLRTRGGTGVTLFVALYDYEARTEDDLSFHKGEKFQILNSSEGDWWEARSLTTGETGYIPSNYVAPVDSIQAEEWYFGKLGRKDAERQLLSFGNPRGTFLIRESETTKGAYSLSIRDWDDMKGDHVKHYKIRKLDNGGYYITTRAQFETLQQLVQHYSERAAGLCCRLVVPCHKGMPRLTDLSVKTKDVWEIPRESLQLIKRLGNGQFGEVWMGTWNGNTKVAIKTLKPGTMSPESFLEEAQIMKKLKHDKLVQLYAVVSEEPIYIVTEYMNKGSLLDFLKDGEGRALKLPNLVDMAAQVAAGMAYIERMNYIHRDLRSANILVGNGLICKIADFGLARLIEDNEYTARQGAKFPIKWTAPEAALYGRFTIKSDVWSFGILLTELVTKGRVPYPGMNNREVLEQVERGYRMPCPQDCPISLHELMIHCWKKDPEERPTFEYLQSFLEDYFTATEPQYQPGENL
LynA, sequence (P07948 whole entry): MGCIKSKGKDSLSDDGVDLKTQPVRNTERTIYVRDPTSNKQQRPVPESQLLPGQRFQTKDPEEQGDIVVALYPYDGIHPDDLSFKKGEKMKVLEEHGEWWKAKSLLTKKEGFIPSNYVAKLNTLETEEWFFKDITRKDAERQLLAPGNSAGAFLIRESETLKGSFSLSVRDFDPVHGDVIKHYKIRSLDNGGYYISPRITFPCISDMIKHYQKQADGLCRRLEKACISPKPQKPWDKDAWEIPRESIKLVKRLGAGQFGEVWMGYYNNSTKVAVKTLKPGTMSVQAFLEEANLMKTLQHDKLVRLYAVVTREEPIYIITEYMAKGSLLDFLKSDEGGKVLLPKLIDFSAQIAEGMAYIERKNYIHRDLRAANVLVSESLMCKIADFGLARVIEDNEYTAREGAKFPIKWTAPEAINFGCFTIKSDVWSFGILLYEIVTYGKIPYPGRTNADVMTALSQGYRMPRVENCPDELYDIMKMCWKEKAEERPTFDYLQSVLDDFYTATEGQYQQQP
T1 sequence (Q06187 whole entry): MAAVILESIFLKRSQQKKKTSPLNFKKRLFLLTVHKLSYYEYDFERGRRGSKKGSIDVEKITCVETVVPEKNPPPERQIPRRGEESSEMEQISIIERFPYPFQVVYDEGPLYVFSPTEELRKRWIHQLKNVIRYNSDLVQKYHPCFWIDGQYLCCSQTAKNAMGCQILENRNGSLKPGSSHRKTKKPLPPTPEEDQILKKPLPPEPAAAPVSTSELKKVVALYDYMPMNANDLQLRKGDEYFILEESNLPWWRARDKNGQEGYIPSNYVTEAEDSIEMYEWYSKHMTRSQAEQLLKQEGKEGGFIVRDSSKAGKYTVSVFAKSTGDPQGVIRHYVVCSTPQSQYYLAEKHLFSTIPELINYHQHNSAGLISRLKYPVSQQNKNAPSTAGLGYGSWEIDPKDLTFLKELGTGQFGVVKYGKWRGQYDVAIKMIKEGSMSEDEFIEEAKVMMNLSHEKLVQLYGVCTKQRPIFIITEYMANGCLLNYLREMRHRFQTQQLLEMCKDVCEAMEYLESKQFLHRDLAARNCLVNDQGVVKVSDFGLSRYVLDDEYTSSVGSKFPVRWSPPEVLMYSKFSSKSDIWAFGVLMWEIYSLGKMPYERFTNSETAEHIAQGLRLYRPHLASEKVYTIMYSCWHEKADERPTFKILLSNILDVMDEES
Lck, sequence (P06239 whole entry): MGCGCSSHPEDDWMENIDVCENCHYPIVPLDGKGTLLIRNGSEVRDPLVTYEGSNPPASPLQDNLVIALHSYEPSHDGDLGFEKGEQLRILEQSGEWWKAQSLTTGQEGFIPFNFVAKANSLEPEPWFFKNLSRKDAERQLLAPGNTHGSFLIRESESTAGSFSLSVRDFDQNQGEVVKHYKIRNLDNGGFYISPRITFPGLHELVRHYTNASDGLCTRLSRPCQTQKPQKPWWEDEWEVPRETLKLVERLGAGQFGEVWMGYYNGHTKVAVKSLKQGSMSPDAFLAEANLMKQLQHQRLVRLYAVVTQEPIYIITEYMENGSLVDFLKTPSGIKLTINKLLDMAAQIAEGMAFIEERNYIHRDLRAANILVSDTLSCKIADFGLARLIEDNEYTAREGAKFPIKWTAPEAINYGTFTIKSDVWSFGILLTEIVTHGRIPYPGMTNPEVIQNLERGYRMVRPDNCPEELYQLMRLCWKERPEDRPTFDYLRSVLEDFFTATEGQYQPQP

Structure (SMILES) | IC50 (Btk) | LynA[IC50]/Btk[IC50] (LynA) | Fyn[IC50]/Btk[IC50] (Fyn) | further results
COc1cccc(-c2c(CCCN(C)C)c(-c3ccc(Oc4ccccc4)cc3)c3c(N)ncnn23)c1 [Example 16(1), 6-(3-(dimethylamino)propyl)-7-(3-methoxyphenyl)-5-(4-phenoxyphenyl)pyrrolo[2,1-f][1,2,4]triazin-4-amine] | 5.8 nM |  |  | 
COc1cccc(-c2c(CCCN3CCCC3)c(-c3ccc(Oc4ccccc4)cc3)c3c(N)ncnn23)c1 [Example 16(2), 7-(3-methoxyphenyl)-5-(4-phenoxyphenyl)-6-(3-(pyrrolidin-1-yl)propyl)pyrrolo[2,1-f][1,2,4]triazin-4-amine] | 65 nM |  |  | 
COc1cccc(-c2c(CCCN3CCCC3)c(-c3ccc(Oc4ccc(Cl)c(Cl)c4)c(OC)c3)c3c(N)ncnn23)c1 [Example 16(3), 5-(4-(3,4-dichlorophenoxy)-3-methoxyphenyl)-7-(3-methoxyphenyl)-6-(3-(pyrrolidin-1-yl)propyl)pyrrolo[2,1-f][1,2,4]triazin-4-amine] | 12 nM | 78 | 917 | Lck[IC50]/Btk[IC50] (Lck): 40
CCN(CC)CC(=O)N1CCC(c2c(CCCN3CCCC3)c(-c3ccc(Oc4cccc(Cl)c4)c(OC)c3)c3c(N)ncnn23)CC1 [Example 21(1), 1-(4-(4-amino-5-(4-(3-chlorophenoxy)-3-methoxyphenyl)-6-(3-(pyrrolidin-1-yl)propyl)pyrrolo[2,1-f][1,2,4]triazin-7-yl)piperidin-1-yl)-2-(diethylamino)ethanone] | 22 nM |  |  | 

More lines, main results first:

IC50 (Btk) | LynA[IC50]/Btk[IC50] (LynA) | Fyn[IC50]/Btk[IC50] (Fyn) | Structure (SMILES) | further results
16 nM |  |  | CCN(CC)CC(=O)N1CCC(c2c(CCCN3CCCC3)c(-c3ccc(Oc4ccc(Cl)c(Cl)c4)c(OC)c3)c3c(N)ncnn23)CC1 [Example 21, 1-(4-(4-amino-5-(4-(3,4-dichlorophenoxy)-3-methoxyphenyl)-6-(3-(pyrrolidin-1-yl)propyl)pyrrolo[2,1-f][1,2,4]triazin-7-yl)piperidin-1-yl)-2-(diethylamino)ethanone] | 
62 nM |  |  | COc1cc(-c2c(C3CCNCC3)c(C3CCCC3)n3ncnc(N)c23)ccc1Oc1ccc(Cl)c(Cl)c1 [Example 25(1), 7-cyclopentyl-5-(4-(3,4-dichlorophenoxy)-3-methoxyphenyl)-6-(piperidin-4-yl)pyrrolo[2,1-f][1,2,4]triazin-4-amine] | 
2 nM | 10000 | >10000 | C=CC(=O)N1CCCC(c2c(Cl)c(-c3ccc(Oc4ccc(Cl)c(Cl)c4)c(OC)c3)c3c(N)ncnn23)C1 (stereo not drawn) [Example 32(1), 1-(3-(4-amino-6-chloro-5-(4-(3,4-dichlorophenoxy)-3-methoxyphenyl)pyrrolo[2,1-f][1,2,4]triazin-7-yl)piperidin-1-yl)prop-2-en-1-one] | 
2 nM | 1389 | 7222 | C=CC(=O)N1CCCC(c2c(Cl)c(-c3ccc(Oc4cccc(Cl)c4)c(OC)c3)c3c(N)ncnn23)C1 (stereo not drawn) [Example 32, 1-(3-(4-amino-6-chloro-5-(4-(3-chlorophenoxy)-3-methoxyphenyl)pyrrolo[2,1-f][1,2,4]triazin-7-yl)piperidin-1-yl)prop-2-en-1-one] | Lck[IC50]/Btk[IC50] (Lck): 161; IC50 (mouse splenocytes): 130 nM; clearance ([1]; intravenous, oral 2 mg/kg / i.v. 1 mg/kg study): 17.8 mL/day/kg; bioavailability ([1]; from AUC oral 2 mg/kg and AUC i.v. 1 mg/kg, read-out: B.A. (Bioavailability)): 24%; AUC [1, 2]: 652 ng·h/mL; Cmax [1, 2]: 227 ng/mL
